Measurements taken from publication PMC10854894, “A New Benzo[6,7]oxepino[3,2-b] Pyridine Derivative Induces Apoptosis in Canine Mammary Cancer Cell Lines” (Animals : an Open Access Journal from MDPI, 2024).
Read-outs that look alike come from different tables or passages of the source.

How the values were obtained:
Test in all cases: MTT cell proliferation/cytotoxicity assay
Format in all cases: cell-based, canine
Settings in all cases: Canis lupus familiaris, read-out: Half-Maximal Inhibitory Concentration (IC50)
REM134 cells = tested on: REM134 cells
Experimental: (§1) The cytotoxic effects of the three BZOP derivatives were studied via the 3-(4,5-Dimethyl-2-thiazolyl)-2,5-diphenyl-2H-tetrazolium bromide (MTT) assay. The REM134, CMGT071020, and MDCK cell lines were seeded at a density of 5 × 10^3 cells/well in 96-well plates and allowed to grow for 24 h. They were then treated with the three BZOP derivatives at various concentrations (0–300 µM) for 24 or 48 h, whereas cells treated with the culture medium containing 0.1% dimethyl sulfoxide (DMSO) were used as a negative control as the compounds were dissolved in DMSO. Subsequently, the cells were incubated with 10 µL of an MTT solution (Sigma, St. Louis, MO, USA) for 4 h. After the incubation with MTT solution, 100 µL of a solubilization solution was added to dissolve water-insoluble purple formazan crystals, and the plate was incubated overnight at 37 °C in 5% CO2. The absorbance of the formazan solution was measured using a Synergy H1 hybrid multi-mode microplate reader (BioTek, Winooski, VT, USA) at 570 nm. The experiment was conducted with four replicates, and the relative cell viability (%) of the treated cells was expressed as a percentage relative to the untreated control cells, which were considered to have 100% viability.

CMGT071020 cells = tested on: CMGT071020 cells
Experimental: as §1

MDCK cells = tested on: MDCK cells
Experimental: as §1

[O-][n+]1cccc2c1C=Cc1cccnc1O2 [OPDOb, oxepino(2,3-b:6,7-b’)dipyridine 1-oxide]
IC50 (REM134 cells; REM134, 24 h): > 300 µM | IC50 (REM134 cells; REM134, 48 h): 172 µM | IC50 (CMGT071020 cells; CMGT071020, 24 h): > 300 µM | IC50 (CMGT071020 cells; CMGT071020, 48 h): > 300 µM | IC50 (MDCK cells; 24 h): > 300 µM | IC50 (MDCK cells; 48 h): > 300 µM

[O-][n+]1cccc2c1C=Cc1ccncc1O2 [OPDOc, oxepino(3,2-b:7,6-c’)dipyridine 1-oxide]
IC50 (REM134 cells; REM134, 24 h): > 300 µM | IC50 (REM134 cells; REM134, 48 h): > 300 µM | IC50 (CMGT071020 cells; CMGT071020, 24 h): > 300 µM | IC50 (CMGT071020 cells; CMGT071020, 48 h): > 300 µM | IC50 (MDCK cells; 24 h): > 300 µM | IC50 (MDCK cells; 48 h): > 300 µM
